# Tests used:
# interferon = assay: Interferon induction in mice; type: in vivo; settings: mouse serum
# Method: One hour later blood samples are withdrawn from the first group. The samples are pooled then centrifuged. The serum is removed from the centrifuge tube, split into two portions, then placed in freezing vials and maintained at −70° C. until analysis. This procedure is repeated at 2 hours with the second group of mice and at 4 hours with the third group of mice. Samples are assayed as described above in connection with the analysis of interferon induction in human cells. The results are expressed in the table below as α/β reference units/mL based on the value obtained for a mouse MU-1-IF standard. Results are shown in the table below wherein results designated as “<” a certain number indicate that interferon was not detectable in amounts above the lower sensitivity level of the assay.
# interferon-α = assay: Interferon-α induction in human cells, PBM; type: cell-based; settings: 24 hours
# [1] = system: vesicular stomatitis virus (VSV); assay: microbe, parasite or virus in culture; type: cell-based; settings: Vesicular stomatitis virus, read-out: VSV Yield Inhibition
Compound,"Interferon induction in mice (interferon; oral 0.3 mg/kg, 1 hr) [Reference Units/mL]","Interferon induction in mice (interferon; oral 0.3 mg/kg, 2 hr) [Reference Units/mL]","Interferon induction in mice (interferon; oral 0.3 mg/kg, 4 hr) [Reference Units/mL]","Interferon induction in mice (interferon; oral 1 mg/kg, 1 hr)","Interferon induction in mice (interferon; oral 1 mg/kg, 2 hr)","Interferon induction in mice (interferon; oral 1 mg/kg, 4 hr)","Interferon induction in mice (interferon; oral 3 mg/kg, 1 hr)","Interferon induction in mice (interferon; oral 3 mg/kg, 2 hr)","Interferon induction in mice (interferon; oral 3 mg/kg, 4 hr)","Interferon induction in mice (interferon; oral 10 mg/kg, 1 hr) [Reference Units/mL]","Interferon induction in mice (interferon; oral 10 mg/kg, 2 hr) [Reference Units/mL]","Interferon induction in mice (interferon; oral 10 mg/kg, 4 hr)",Interferon-α induction (interferon-α; dose concentration 0.10 μg/mL),Interferon-α induction (interferon-α; dose concentration 0.50 μg/mL),Interferon-α induction (interferon-α; dose concentration 1.0 μg/mL),Interferon-α induction (interferon-α; dose concentration 5.0 μg/mL),log reduction at 1 µg/mL [1],Interferon-α induction (interferon-α; dose concentration 0.01 μg/mL),Interferon-α induction (interferon-α; dose concentration 0.05 μg/mL),log reduction at 0.1 µg/mL [1],other results
"CC(=O)NCc1nc2c(N)nc3ccccc3c2n1CC(C)C [Example 15, N-Acetyl-4-amino-1-(2-methylpropyl)-1H-imidazo-[4,5-c]quinoline-2-methanamine]",<120,<120,<120,<120 Reference Units/mL,<120 Reference Units/mL,<120 Reference Units/mL,<120 Reference Units/mL,270 Reference Units/mL,<120 Reference Units/mL,270,3100,270 Reference Units/mL,<1.8 α Reference Units/mL,250 α Reference Units/mL,430 α Reference Units/mL,750 α Reference Units/mL,6,,,,log reduction at 5 µg/mL [1]: 5; log reduction at 10 µg/mL [1]: 5
"Nc1nc2ccccc2c2c1nc(CO)n2Cc1ccccc1 [Example 27, 4-Amino-1-phenylmethyl-1H-imidazo[4,5-c]-quinoline-2-methanol]",<45,<45,<45,<45 Reference Units/mL,<45 Reference Units/mL,<45 Reference Units/mL,<59 Reference Units/mL,230 Reference Units/mL,<45 Reference Units/mL,130,690,<45 Reference Units/mL,3300 α Reference Units/mL,550 α Reference Units/mL,370 α Reference Units/mL,490 α Reference Units/mL,4,<4 α Reference Units/mL,24 α Reference Units/mL,4,log reduction at 0.5 µg/mL [1]: 3
"CCOCc1nc2c(N)nc3ccccc3c2n1CC(C)C [Example 40, 2-Ethoxymethyl-1-(2-methylpropyl)-1H-imidazo[4,5-c]quinolin-4-amine]",450,200,<29,450 Reference Units/mL,450 Reference Units/mL,110 Reference Units/mL,990 Reference Units/mL,1100 Reference Units/mL,210 Reference Units/mL,1600,1600,170 Reference Units/mL,680 α Reference Units/mL,230 α Reference Units/mL,210 α Reference Units/mL,210 α Reference Units/mL,7,,,,log reduction at 5 µg/mL [1]: 7; log reduction at 10 µg/mL [1]: 6
"COC(c1ccccc1)c1nc2c(N)nc3ccccc3c2n1CC(C)C (stereo not drawn) [Example 51, 2-(α-Methoxybenzyl)-1-(2-methylpropyl)-1H-imidazo[4,5-c]quinolin-4-amine]",,,,,,,,,,,,,<5 α Reference Units/mL,<5 α Reference Units/mL,1000 α Reference Units/mL,330 α Reference Units/mL,5,,,0,log reduction at 0.5 µg/mL [1]: 1
"CC(=O)OC(C)c1nc2c(N)nc3ccccc3c2n1CC(C)C.O (stereo not drawn) [Example 69, 4-Amino-α-methyl-1-(2-methylpropyl)-1H-imidazo[4,5-c]quinoline-2-methyl Acetate Hydrate]",<150,<150,<150,<150 Reference Units/mL,<150 Reference Units/mL,<150 Reference Units/mL,≦270 Reference Units/mL,≦150 Reference Units/mL,<150 Reference Units/mL,1000,1000,≦340 Reference Units/mL,1000 α Reference Units/mL,680 α Reference Units/mL,390 α Reference Units/mL,900 α Reference Units/mL,,<6.4 α Reference Units/mL,<6.4 α Reference Units/mL,,
"COCCc1nc2c(N)nc3ccccc3c2n1CC(C)C [Example 72, 2-(2-Methoxyethyl)-1-(2-methylpropyl)-1H-imidazo[4,5-c]quinolin-4-amine]",,,,,,,,,,,,,200 α Reference Units/mL,210 α Reference Units/mL,220 α Reference Units/mL,420 α Reference Units/mL,5,,,5,log reduction at 0.5 µg/mL [1]: 5
"COC(C)Cc1nc2c(N)nc3ccccc3c2n1CC(C)C (centres unmarked) [Example 77, 2-(2-Methoxypropyl)-1-(2-methylpropyl)-1H-imidazo[4,5-c]quinolin-4-amine]",,,,,,,,,,,,,2600 α Reference Units/mL,390 α Reference Units/mL,250 α Reference Units/mL,280 α Reference Units/mL,5,<6.3 α Reference Units/mL,<6.3 α Reference Units/mL,3,log reduction at 0.5 µg/mL [1]: 5
"CC(C)Cn1c(CC(C)O)nc2c(N)nc3ccccc3c21 (stereo not drawn) [Example 81, 4-Amino-α-methyl-1-(2-methylpropyl)-1H-imidazo[4,5-c]quinoline-2-ethanol]",,,,,,,,,,,,,1100 α Reference Units/mL,2200 α Reference Units/mL,460 α Reference Units/mL,1100 α Reference Units/mL,5,,,5,log reduction at 0.5 µg/mL [1]: 4
"COCc1nc2c(N)nc3ccccc3c2n1Cc1ccccc1 [Example 104, 2-Methoxymethyl-1-phenylmethyl-1H-imidazo[4,5-c]quinolin-4-amine]",<380,<380,<380,˜780 Reference Units/mL,˜780 Reference Units/mL,˜380 Reference Units/mL,≦660 Reference Units/mL,2200 Reference Units/mL,<380 Reference Units/mL,3400,4500,≦660 Reference Units/mL,310 α Reference Units/mL,180 α Reference Units/mL,140 α Reference Units/mL,310 α Reference Units/mL,,<2.7 α Reference Units/mL,<2.7 α Reference Units/mL,,
"CCCCn1c(COCC)nc2c(N)nc3ccccc3c21 [Example 117, 1-Butyl-2-ethoxymethyl-1H-imidazo[4,5-c]quinolin-4-amine]",<160,1200,<160,≦270 Reference Units/mL,630 Reference Units/mL,≦270 Reference Units/mL,˜820 Reference Units/mL,2200 Reference Units/mL,˜310 Reference Units/mL,1100,480,˜310 Reference Units/mL,340 α Reference Units/mL,140 α Reference Units/mL,91 α Reference Units/mL,110 α Reference Units/mL,,<4.4 α Reference Units/mL,360 α Reference Units/mL,,

# From US6465654B2, “Process for preparing 1-substituted, 2-substituted 1H-imidazo[4, 5-c]quinoline-4-amines” (3M Innovative Properties Company, priority 1991, dated 2002)
